Assay results taken from patent publication US4508663A, “Process for preparing thiosulfenamide derivatives of N-phosphonomethylglycinonitriles” (Monsanto Company, priority 1983, dated 1985).

What was measured:
Test in all cases: post-emergence herbicidal activity, greenhouse
Assay type in all cases: in vivo
Hemp Sesbania = conditions: Table II, 2 WAT
Source text: (§1) A good grade of top soil is placed in aluminum pans having holes in the bottom and compacted to a depth of 0.95 to 1.27 cm. from the top of the pan. A predetermined number of seeds of each of several dicotyledonous and monocotyledonous annual plant species and/or vegetative propagules for the perennial plant species are placed on the soil and pressed into the soil surface. The seeds and/or vegetative propagules are covered with soil and leveled. The pans are then placed on a sand bench in the greenhouse and watered from below as needed. After the plants reach the desired age (two to three weeks), each pan except for the control pans is removed individually to a spraying chamber and sprayed by means of an atomizer operating at a positive air pressure of approximately 1.46 kg/cm^2 absolute. The atomizer contains 6 ml. of a solution or suspension of the chemical. In that 6 ml., is an amount of a cyclohexanone emulsifying agent mixture to give a spray solution or suspension which contains about 0.4% by weight of the emulsifier. The spray solution or suspension contains a sufficient amount of the candidate chemical in order to give application rates corresponding to those set forth in the tables. The spray solution is prepared by taking an aliquot of a 1.0% by weight stock solution or suspension of the candidate chemical in an organic solvent such as acetone or tetrahydrofuran or in water. The emulsifying agent employed is a mixture comprising 35 weight percent butylamine dodecylbenzene sulfonate and 65 weight percent of a tall oil ethylene oxide condensate having about 11 moles of ethylene oxide per mole of tall oil. The pans are returned to the greenhouse and watered as before and the injury to the plants as compared to the control is observed at approximately two and four weeks as indicated in the tables under WAT and the results recorded. In some instances, the two-week observations are omitted.
(§2) The post-emergence herbicidal activity index used in Table I is as follows: […]

Rice = conditions: Table II, 2 WAT
Source text: as §1, §2

Cocklebur = system: Cocklebur
Source text: as §1, §2

Quackgrass = conditions: Table I
Source text: as §1, §2

Soybean = conditions: Table II, 2 WAT
Source text: as §1, §2

Lambsquarters = system: Lambsquarters
Source text: as §1, §2

Yellow Nutsedge = conditions: Table I
Source text: as §1, §2

Sugar Beet = conditions: Table II, 2 WAT
Source text: as §1, §2

Crabgrass = conditions: Table II, 2 WAT
Source text: as §1, §2

Morningglory = system: Morningglory
Source text: as §1, §2

Barnyardgrass = system: Barnyardgrass
Source text: as §1, §2

Panicum Spp = conditions: Table II, 2 WAT
Source text: as §1, §2

Johnsongrass = conditions: Table I
Source text: as §1, §2

Sorghum = conditions: Table II, 2 WAT
Source text: as §1, §2

Downy Brome = system: Downy Brome
Source text: as §1, §2

Smartweed = system: Smartweed
Source text: as §1, §2

Velvetleaf = system: Velvetleaf
Source text: as §1, §2

Wheat = conditions: Table II, 2 WAT
Source text: as §1, §2

Wild Buckwheat = conditions: Table II, 2 WAT
Source text: as §1, §2

## N#CCN(CP(=O)(Oc1ccccc1)Oc1ccccc1)SSc1ccc2ccccc2c1 [IX, Phosphonic acid, [[(cyanomethyl)(2-naphthalenyldithio)amino]methyl]-, diphenyl ester]
Hemp Sesbania; 0.28 kg/h
  post-emergence herbicidal activity index: 0 (0-24% control)
Hemp Sesbania; 1.12 kg/h
  post-emergence herbicidal activity index: 0 (0-24% control)
Hemp Sesbania; 5.6 kg/h
  post-emergence herbicidal activity index: 1 (25-49% control)
Rice; 0.28 kg/h
  post-emergence herbicidal activity index: 0 (0-24% control)
Rice; 1.12 kg/h
  post-emergence herbicidal activity index: 0 (0-24% control)
Rice; 5.6 kg/h
  post-emergence herbicidal activity index: 0 (0-24% control)
Cocklebur; Table I, 2 WAT, 5.6 kg/h
  post-emergence herbicidal activity index: 0 (0-24% control)
Cocklebur; Table I, 4 WAT, 11.2 kg/h
  post-emergence herbicidal activity index: 1 (25-49% control)
Cocklebur; Table II, 2 WAT, 0.28 kg/h
  post-emergence herbicidal activity index: 0 (0-24% control)
Cocklebur; Table II, 2 WAT, 1.12 kg/h
  post-emergence herbicidal activity index: 0 (0-24% control)
Cocklebur; Table II, 2 WAT, 5.6 kg/h
  post-emergence herbicidal activity index: 1 (25-49% control)
Quackgrass; 2 WAT, 5.6 kg/h
  post-emergence herbicidal activity index: 0 (0-24% control)
Quackgrass; 4 WAT, 11.2 kg/h
  post-emergence herbicidal activity index: 1 (25-49% control)
Soybean; 0.28 kg/h
  post-emergence herbicidal activity index: 0 (0-24% control)
Soybean; 1.12 kg/h
  post-emergence herbicidal activity index: 0 (0-24% control)
Soybean; 5.6 kg/h
  post-emergence herbicidal activity index: 0 (0-24% control)
Lambsquarters; Table I, 2 WAT, 5.6 kg/h
  post-emergence herbicidal activity index: 1 (25-49% control)
Lambsquarters; Table I, 4 WAT, 11.2 kg/h
  post-emergence herbicidal activity index: 3 (75-99% control)
Lambsquarters; Table II, 2 WAT, 0.28 kg/h
  post-emergence herbicidal activity index: 0 (0-24% control)
Lambsquarters; Table II, 2 WAT, 1.12 kg/h
  post-emergence herbicidal activity index: 0 (0-24% control)
Lambsquarters; Table II, 2 WAT, 5.6 kg/h
  post-emergence herbicidal activity index: 3 (75-99% control)
Yellow Nutsedge; 2 WAT, 5.6 kg/h
  post-emergence herbicidal activity index: 0 (0-24% control)
Yellow Nutsedge; 4 WAT, 11.2 kg/h
  post-emergence herbicidal activity index: 0 (0-24% control)
Sugar Beet; 0.28 kg/h
  post-emergence herbicidal activity index: 0 (0-24% control)
Sugar Beet; 1.12 kg/h
  post-emergence herbicidal activity index: 0 (0-24% control)
Sugar Beet; 5.6 kg/h
  post-emergence herbicidal activity index: 0 (0-24% control)
Crabgrass; 0.28 kg/h
  post-emergence herbicidal activity index: 0 (0-24% control)
Crabgrass; 1.12 kg/h
  post-emergence herbicidal activity index: 0 (0-24% control)
Crabgrass; 5.6 kg/h
  post-emergence herbicidal activity index: 2 (50-74% control)
Morningglory; Table I, 2 WAT, 5.6 kg/h
  post-emergence herbicidal activity index: 0 (0-24% control)
Morningglory; Table I, 4 WAT, 11.2 kg/h
  post-emergence herbicidal activity index: 0 (0-24% control)
Morningglory; Table II, 2 WAT, 0.28 kg/h
  post-emergence herbicidal activity index: 0 (0-24% control)
Morningglory; Table II, 2 WAT, 1.12 kg/h
  post-emergence herbicidal activity index: 0 (0-24% control)
Morningglory; Table II, 2 WAT, 5.6 kg/h
  post-emergence herbicidal activity index: 1 (25-49% control)
Barnyardgrass; Table I, 2 WAT, 5.6 kg/h
  post-emergence herbicidal activity index: 0 (0-24% control)
Barnyardgrass; Table I, 4 WAT, 11.2 kg/h
  post-emergence herbicidal activity index: 1 (25-49% control)
Barnyardgrass; Table II, 2 WAT, 0.28 kg/h
  post-emergence herbicidal activity index: 0 (0-24% control)
Barnyardgrass; Table II, 2 WAT, 1.12 kg/h
  post-emergence herbicidal activity index: 0 (0-24% control)
Barnyardgrass; Table II, 2 WAT, 5.6 kg/h
  post-emergence herbicidal activity index: 1 (25-49% control)
Panicum Spp; 0.28 kg/h
  post-emergence herbicidal activity index: 0 (0-24% control)
Panicum Spp; 1.12 kg/h
  post-emergence herbicidal activity index: 0 (0-24% control)
Panicum Spp; 5.6 kg/h
  post-emergence herbicidal activity index: 0 (0-24% control)
Johnsongrass; 2 WAT, 5.6 kg/h
  post-emergence herbicidal activity index: 1 (25-49% control)
Johnsongrass; 4 WAT, 11.2 kg/h
  post-emergence herbicidal activity index: 1 (25-49% control)
Sorghum; 0.28 kg/h
  post-emergence herbicidal activity index: 0 (0-24% control)
Sorghum; 1.12 kg/h
  post-emergence herbicidal activity index: 0 (0-24% control)
Sorghum; 5.6 kg/h
  post-emergence herbicidal activity index: 1 (25-49% control)
Downy Brome; Table I, 2 WAT, 5.6 kg/h
  post-emergence herbicidal activity index: 0 (0-24% control)
Downy Brome; Table I, 4 WAT, 11.2 kg/h
  post-emergence herbicidal activity index: 0 (0-24% control)
Downy Brome; Table II, 2 WAT, 0.28 kg/h
  post-emergence herbicidal activity index: 0 (0-24% control)
Downy Brome; Table II, 2 WAT, 1.12 kg/h
  post-emergence herbicidal activity index: 0 (0-24% control)
Downy Brome; Table II, 2 WAT, 5.6 kg/h
  post-emergence herbicidal activity index: 0 (0-24% control)
Smartweed; Table I, 2 WAT, 5.6 kg/h
  post-emergence herbicidal activity index: 0 (0-24% control)
Smartweed; Table I, 4 WAT, 11.2 kg/h
  post-emergence herbicidal activity index: 3 (75-99% control)
Smartweed; Table II, 2 WAT, 0.28 kg/h
  post-emergence herbicidal activity index: 0 (0-24% control)
Smartweed; Table II, 2 WAT, 1.12 kg/h
  post-emergence herbicidal activity index: 0 (0-24% control)
Smartweed; Table II, 2 WAT, 5.6 kg/h
  post-emergence herbicidal activity index: 1 (25-49% control)
Velvetleaf; Table I, 2 WAT, 5.6 kg/h
  post-emergence herbicidal activity index: 1 (25-49% control)
Velvetleaf; Table I, 4 WAT, 11.2 kg/h
  post-emergence herbicidal activity index: 1 (25-49% control)
Velvetleaf; Table II, 2 WAT, 0.28 kg/h
  post-emergence herbicidal activity index: 0 (0-24% control)
Velvetleaf; Table II, 2 WAT, 1.12 kg/h
  post-emergence herbicidal activity index: 0 (0-24% control)
Velvetleaf; Table II, 2 WAT, 5.6 kg/h
  post-emergence herbicidal activity index: 0 (0-24% control)
Wheat; 0.28 kg/h
  post-emergence herbicidal activity index: 0 (0-24% control)
Wheat; 1.12 kg/h
  post-emergence herbicidal activity index: 0 (0-24% control)
Wheat; 5.6 kg/h
  post-emergence herbicidal activity index: 1 (25-49% control)
Wild Buckwheat; 0.28 kg/h
  post-emergence herbicidal activity index: 0 (0-24% control)
Wild Buckwheat; 1.12 kg/h
  post-emergence herbicidal activity index: 0 (0-24% control)
Wild Buckwheat; 5.6 kg/h
  post-emergence herbicidal activity index: 1 (25-49% control)

## N#CCN(CP(=O)(Oc1ccccc1)Oc1ccccc1)SSCc1cccc(C(F)(F)F)c1 [VIII, Phosphonic acid, [[(cyanomethyl)[[[3-(trifluoromethyl)phenyl]methyl]dithio]amino]methyl]-, diphenyl ester]
Cocklebur; Table I, 4 WAT, 5.6 kg/h
  post-emergence herbicidal activity index: 1 (25-49% control)
Cocklebur; Table I, 4 WAT, 11.2 kg/h
  post-emergence herbicidal activity index: 2 (50-74% control)
Quackgrass; 4 WAT, 11.2 kg/h
  post-emergence herbicidal activity index: 0 (0-24% control)
Lambsquarters; Table I, 4 WAT, 5.6 kg/h
  post-emergence herbicidal activity index: 4 (100% control)
Lambsquarters; Table I, 4 WAT, 11.2 kg/h
  post-emergence herbicidal activity index: 4 (100% control)
Yellow Nutsedge; 4 WAT, 5.6 kg/h
  post-emergence herbicidal activity index: 2 (50-74% control)
Yellow Nutsedge; 4 WAT, 11.2 kg/h
  post-emergence herbicidal activity index: 2 (50-74% control)
Morningglory; Table I, 4 WAT, 5.6 kg/h
  post-emergence herbicidal activity index: 1 (25-49% control)
Morningglory; Table I, 4 WAT, 11.2 kg/h
  post-emergence herbicidal activity index: 1 (25-49% control)
Barnyardgrass; Table I, 4 WAT, 5.6 kg/h
  post-emergence herbicidal activity index: 2 (50-74% control)
Barnyardgrass; Table I, 4 WAT, 11.2 kg/h
  post-emergence herbicidal activity index: 2 (50-74% control)
Johnsongrass; 4 WAT, 5.6 kg/h
  post-emergence herbicidal activity index: 3 (75-99% control)
Johnsongrass; 4 WAT, 11.2 kg/h
  post-emergence herbicidal activity index: 3 (75-99% control)
Downy Brome; Table I, 4 WAT, 5.6 kg/h
  post-emergence herbicidal activity index: 1 (25-49% control)
Downy Brome; Table I, 4 WAT, 11.2 kg/h
  post-emergence herbicidal activity index: 2 (50-74% control)
Smartweed; Table I, 4 WAT, 5.6 kg/h
  post-emergence herbicidal activity index: 0 (0-24% control)
Smartweed; Table I, 4 WAT, 11.2 kg/h
  post-emergence herbicidal activity index: 0 (0-24% control)
Velvetleaf; Table I, 4 WAT, 5.6 kg/h
  post-emergence herbicidal activity index: 1 (25-49% control)
Velvetleaf; Table I, 4 WAT, 11.2 kg/h
  post-emergence herbicidal activity index: 1 (25-49% control)

## N#CCN(CP(=O)(Oc1ccccc1)Oc1ccccc1)SSC1CCCCC1 [X, Phosphonic acid, [[(cyanomethyl)(cyclohexyldithio)amino]methyl]-, diphenyl ester]
Cocklebur; Table I, 2 WAT, 5.6 kg/h
  post-emergence herbicidal activity index: 0 (0-24% control)
Cocklebur; Table I, 4 WAT, 11.2 kg/h
  post-emergence herbicidal activity index: 2 (50-74% control)
Quackgrass; 2 WAT, 5.6 kg/h
  post-emergence herbicidal activity index: 0 (0-24% control)
Quackgrass; 4 WAT, 11.2 kg/h
  post-emergence herbicidal activity index: 0 (0-24% control)
Lambsquarters; Table I, 2 WAT, 5.6 kg/h
  post-emergence herbicidal activity index: 3 (75-99% control)
Lambsquarters; Table I, 4 WAT, 11.2 kg/h
  post-emergence herbicidal activity index: 3 (75-99% control)
Yellow Nutsedge; 2 WAT, 5.6 kg/h
  post-emergence herbicidal activity index: 0 (0-24% control)
Yellow Nutsedge; 4 WAT, 11.2 kg/h
  post-emergence herbicidal activity index: 0 (0-24% control)
Morningglory; Table I, 2 WAT, 5.6 kg/h
  post-emergence herbicidal activity index: 0 (0-24% control)
Morningglory; Table I, 4 WAT, 11.2 kg/h
  post-emergence herbicidal activity index: 1 (25-49% control)
Barnyardgrass; Table I, 2 WAT, 5.6 kg/h
  post-emergence herbicidal activity index: 0 (0-24% control)
Barnyardgrass; Table I, 4 WAT, 11.2 kg/h
  post-emergence herbicidal activity index: 1 (25-49% control)
Johnsongrass; 2 WAT, 5.6 kg/h
  post-emergence herbicidal activity index: 0 (0-24% control)
Johnsongrass; 4 WAT, 11.2 kg/h
  post-emergence herbicidal activity index: 1 (25-49% control)
Downy Brome; Table I, 2 WAT, 5.6 kg/h
  post-emergence herbicidal activity index: 0 (0-24% control)
Downy Brome; Table I, 4 WAT, 11.2 kg/h
  post-emergence herbicidal activity index: 1 (25-49% control)
Smartweed; Table I, 2 WAT, 5.6 kg/h
  post-emergence herbicidal activity index: 0 (0-24% control)
Smartweed; Table I, 4 WAT, 11.2 kg/h
  post-emergence herbicidal activity index: 0 (0-24% control)
Velvetleaf; Table I, 2 WAT, 5.6 kg/h
  post-emergence herbicidal activity index: 1 (25-49% control)
Velvetleaf; Table I, 4 WAT, 11.2 kg/h
  post-emergence herbicidal activity index: 1 (25-49% control)
